# Laboratory results taken from PubChem BioAssay AID493086 (The Scripps Research Institute Molecular Screening Center, 2011).
# Active and inactive are the calls of the source.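 How the source made its calls: active means IC50 at or below 10 µM; inactive means IC50 above 10 µM.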
# Molecular target: Induced myeloid leukemia cell differentiation protein Mcl-1 (Homo sapiens) (UniProt Q07820)
# Assay: blockers of MCL1–BIM BH3 interaction – biochemical, fluorescence polarization, assay provider data, powder samples, late-stage follow-up (AID 493086)
# Details: GST-MCL1 / FITC-BIM-BH3 fluorescence polarization
# Sequence of Induced myeloid leukemia cell differentiation protein Mcl-1 (Homo sapiens) (Q07820 whole entry, looked up): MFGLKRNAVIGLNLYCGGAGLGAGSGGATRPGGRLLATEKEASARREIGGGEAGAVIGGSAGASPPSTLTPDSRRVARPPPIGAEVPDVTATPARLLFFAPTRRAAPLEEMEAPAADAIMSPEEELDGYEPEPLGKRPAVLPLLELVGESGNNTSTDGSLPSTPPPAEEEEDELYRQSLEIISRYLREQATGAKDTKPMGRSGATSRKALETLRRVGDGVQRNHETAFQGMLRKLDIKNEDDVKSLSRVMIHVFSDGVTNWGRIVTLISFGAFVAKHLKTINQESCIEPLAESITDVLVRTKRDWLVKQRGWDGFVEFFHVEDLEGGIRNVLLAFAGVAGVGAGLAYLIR
row,Structure (SMILES),IC50
1,COc1ccc(Cc2nnc(NC(=O)Cc3cccnc3)s2)cc1OC,> 20 µM (inactive)
2,Cc1ccc(-c2cc(C(=O)Nc3ccccn3)c3ccccc3n2)o1,inactive
3,O=C(NCC1CCCO1)c1cc(-c2ccco2)nc2ccccc12 (configuration not stated),inactive
4,CCCCN(C(=O)c1cc(-c2ccco2)nc2ccccc12)c1c(N)n(CCCC)c(=O)[nH]c1=O,> 20 µM (inactive)
5,Cc1ccc(NC(=O)c2cc(-c3ccco3)nc3ccccc23)cc1S(=O)(=O)N1CCOCC1,inactive
6,CC1CCCN(C(=O)c2cc(-c3ccco3)nc3ccccc23)C1 (configuration not stated),> 20 µM (inactive)
7,O=C(Nc1cccc(F)c1)c1cc(-c2ccco2)nc2ccccc12,> 20 µM (inactive)
8,COc1ccc(Cc2nnc(NC(=O)CCc3cccs3)s2)cc1OC,> 20 µM (inactive)
9,O=C(NCCCN1CCOCC1)c1cc(-c2ccco2)nc2ccccc12,> 20 µM (inactive)
10,CN(CC(=O)Nc1ccc(F)cc1)C(=O)c1cc(-c2ccco2)nc2ccccc12,> 20 µM (inactive)
11,Cc1ccc(-c2cc(C(=O)Nc3ccccc3C(N)=O)c3ccccc3n2)o1,> 20 µM (inactive)
12,CCc1nnc(NC(=O)c2cc(-c3ccco3)nc3ccccc23)s1,inactive
